# Results published in ChEMBL document CHEMBL4673219, “Novel 5,6-disubstituted pyrrolo[2,3-d]pyrimidine derivatives as broad spectrum antiproliferative agents: Synthesis, cell based assays, kinase profile and molecular docking study” (Bioorg Med Chem, 2018).
# Key:
# HCT-116 [1] = test: Antiproliferative activity against human HCT-116 cells assessed as cell growth inhibition measured after 72 hrs by MTT assay; type: functional
# NCI-H226 [2] = test: Growth inhibition of human NCI-H226 cells incubated for 48 hrs by sulforhodamine B assay; type: functional; conditions: Homo sapiens
# KM12 [3] = test: Growth inhibition of human KM12 cells assessed as growth percentage at 1 uM incubated for 48 hrs by sulforhodamine B assay relative to control; type: functional; conditions: read-out: Activity
# SNB-75 [4] = test: Growth inhibition of human SNB-75 cells assessed as growth percentage at 0.01 uM incubated for 48 hrs by sulforhodamine B assay relative to control; type: functional; conditions: read-out: Activity
# SK-MEL-5 = test: Growth inhibition of human SK-MEL-5 cells assessed as growth percentage at 10 uM incubated for 48 hrs by sulforhodamine B assay relative to control; type: functional; conditions: read-out: Activity
# SNB-19 [5] = test: Growth inhibition of human SNB-19 cells assessed as growth percentage at 100 uM incubated for 48 hrs by sulforhodamine B assay relative to control; type: functional; conditions: read-out: Activity
# HCT-116 [6] = test: Growth inhibition of human HCT-116 cells assessed as growth percentage at 0.1 uM incubated for 48 hrs by sulforhodamine B assay relative to control; type: functional; conditions: read-out: Activity
# MCF7 = test: Antiproliferative activity against human MCF7 cells assessed as cell growth inhibition measured after 72 hrs by MTT assay; type: functional
# KM12 [7] = test: Growth inhibition of human KM12 cells assessed as growth percentage at 0.1 uM incubated for 48 hrs by sulforhodamine B assay relative to control; type: functional; conditions: read-out: Activity
# SNB-75 [8] = test: Growth inhibition of human SNB-75 cells assessed as growth percentage at 0.1 uM incubated for 48 hrs by sulforhodamine B assay relative to control; type: functional; conditions: read-out: Activity
# MDA-MB-231 [9] = test: Growth inhibition of human MDA-MB-231/ATCC cells incubated for 48 hrs by sulforhodamine B assay; type: functional
# KM12 [10] = test: Growth inhibition of human KM12 cells assessed as growth percentage at 0.01 uM incubated for 48 hrs by sulforhodamine B assay relative to control; type: functional; conditions: read-out: Activity
# NCI-H23 = test: Growth inhibition of human NCI-H23 cells assessed as growth percentage at 1 uM incubated for 48 hrs by sulforhodamine B assay relative to control; type: functional; conditions: read-out: Activity
# K562 = test: Growth inhibition of human K562 cells incubated for 48 hrs by sulforhodamine B assay; type: functional
# U-251 [11] = test: Growth inhibition of human U-251 cells incubated for 48 hrs by sulforhodamine B assay; type: functional; conditions: for CC50: read-out: LC50 (the source's name)
# RXF 393 = test: Growth inhibition of human RXF 393 cells incubated for 48 hrs by sulforhodamine B assay; type: functional
# COLO 205 [12] = test: Growth inhibition of human COLO 205 cells assessed as growth percentage at 0.01 uM incubated for 48 hrs by sulforhodamine B assay relative to control; type: functional; conditions: read-out: Activity
# U-251 [13] = test: Growth inhibition of human U-251 cells assessed as growth percentage at 1 uM incubated for 48 hrs by sulforhodamine B assay relative to control; type: functional; conditions: read-out: Activity
# UO-31 = test: Growth inhibition of human UO-31 cells assessed as growth percentage at 100 uM incubated for 48 hrs by sulforhodamine B assay relative to control; type: functional; conditions: read-out: Activity
# MDA-MB-231 [14] = test: Growth inhibition of human MDA-MB-231/ATCC cells assessed as growth percentage at 100 uM incubated for 48 hrs by sulforhodamine B assay relative to control; type: functional; conditions: read-out: Activity
# HOP-62 = test: Growth inhibition of human HOP-62 cells assessed as growth percentage at 0.01 uM incubated for 48 hrs by sulforhodamine B assay relative to control; type: functional; conditions: read-out: Activity
# CCRF-CEM = test: Growth inhibition of human CCRF-CEM cells assessed as growth percentage at 100 uM incubated for 48 hrs by sulforhodamine B assay relative to control; type: functional; conditions: read-out: Activity
# SNB-19 [15] = test: Growth inhibition of human SNB-19 cells incubated for 48 hrs by sulforhodamine B assay; type: functional
# COLO 205 [16] = test: Growth inhibition of human COLO 205 cells assessed as growth percentage at 10 uM incubated for 48 hrs by sulforhodamine B assay relative to control; type: functional; conditions: read-out: Activity
# 786-0 [17] = test: Growth inhibition of human 786-0 cells assessed as growth percentage at 1 uM incubated for 48 hrs by sulforhodamine B assay relative to control; type: functional; conditions: read-out: Activity
# RPMI-8226 = test: Growth inhibition of human RPMI-8226 cells assessed as growth percentage at 100 uM incubated for 48 hrs by sulforhodamine B assay relative to control; type: functional; conditions: read-out: Activity
# NCI-H226 [18] = test: Growth inhibition of human NCI-H226 cells assessed as growth percentage at 10 uM incubated for 48 hrs by sulforhodamine B assay relative to control; type: functional; conditions: read-out: Activity
# SF-268 = test: Growth inhibition of human SF-268 cells assessed as growth percentage at 100 uM incubated for 48 hrs by sulforhodamine B assay relative to control; type: functional; conditions: read-out: Activity
# SK-BR-3 = test: Antiproliferative activity against human SK-BR-3 cells assessed as cell growth inhibition at 10 uM measured after 72 hrs by MTT assay relative to control; type: functional; conditions: read-out: GI
# [19] = Cytotoxicity against human HFF-1 cells assessed as cell growth inhibition at 10 uM by MTT assay relative to control; type: cell-based; conditions: read-out: GI
# 786-0 [20] = test: Growth inhibition of human 786-0 cells assessed as growth percentage at 0.01 uM incubated for 48 hrs by sulforhodamine B assay relative to control; type: functional; conditions: read-out: Activity
# NCI-H522 [21] = test: Growth inhibition of human NCI-H522 cells assessed as growth percentage at 100 uM incubated for 48 hrs by sulforhodamine B assay relative to control; type: functional; conditions: read-out: Activity
# HCT-116 [22] = test: Growth inhibition of human HCT-116 cells assessed as growth percentage at 1 uM incubated for 48 hrs by sulforhodamine B assay relative to control; type: functional; conditions: read-out: Activity
# T47D = test: Growth inhibition of human T47D cells assessed as growth percentage at 1 uM incubated for 48 hrs by sulforhodamine B assay relative to control; type: functional; conditions: read-out: Activity
# SK-MEL-2 = test: Growth inhibition of human SK-MEL-2 cells assessed as growth percentage at 10 uM incubated for 48 hrs by sulforhodamine B assay relative to control; type: functional; conditions: read-out: Activity
# 786-0 [23] = test: Growth inhibition of human 786-0 cells assessed as growth percentage at 10 uM incubated for 48 hrs by sulforhodamine B assay relative to control; type: functional; conditions: read-out: Activity
# OVCAR-3 = test: Growth inhibition of human OVCAR-3 cells assessed as growth percentage at 1 uM incubated for 48 hrs by sulforhodamine B assay relative to control; type: functional; conditions: read-out: Activity
# NCI/ADR-RES = test: Growth inhibition of human NCI/ADR-RES cells assessed as growth percentage at 0.1 uM incubated for 48 hrs by sulforhodamine B assay relative to control; type: functional; conditions: read-out: Activity
# NCI-H522 [24] = test: Growth inhibition of human NCI-H522 cells assessed as growth percentage at 1 uM incubated for 48 hrs by sulforhodamine B assay relative to control; type: functional; conditions: read-out: Activity
structure (smiles),measurement,setting,value
CCCCCCCC(=O)Nc1nc2[nH]c(CN3CCN(Cc4cccc(F)c4)CC3)c(CN3CCN(Cc4cccc(F)c4)CC3)c2c(=O)[nH]1,GI50,HCT-116 [1],2250 nM
same,TGI,NCI-H226 [2]; NCI-H226,3840 nM
same,GI50,"NCI-H226 [2]; NCI-H226, 48 h",1840 nM
same,CC50,"NCI-H226 [2]; NCI-H226, 48 h, read-out: LC50 (the source's name)",8040 nM
same,growth at 1 µM,KM12 [3],43%
same,growth at 0.01 µM,SNB-75 [4],93%
same,growth at 10 µM,SK-MEL-5,33.5%
same,growth at 100 µM,SNB-19 [5],-83%
same,growth at 0.1 µM,HCT-116 [6],93%
same,GI50,MCF7,2150 nM
same,growth at 0.1 µM,KM12 [7],93%
same,growth at 0.1 µM,SNB-75 [8],82%
same,GI50,MDA-MB-231 [9]; 48 h,590 nM
same,TGI,"MDA-MB-231 [9]; Homo sapiens, MDA-MB-231",1960 nM
same,GI50,"MDA-MB-231 [9]; Homo sapiens, MDA-MB-231, 48 h",587 nM
same,CC50,"MDA-MB-231 [9]; Homo sapiens, MDA-MB-231, read-out: LC50 (the source's name)",5380 nM
same,growth at 0.01 µM,KM12 [10],96%
same,growth at 1 µM,NCI-H23,92%
same,GI50,K562; 48 h,210 nM
same,LC50 (concentration killing 50% of cells),K562; 48 h,> 100000 nM
same,TGI,K562; 48 h,550 nM
same,GI50,"K562; Homo sapiens, K562, 48 h",205 nM
same,LC50 (concentration killing 50% of cells),"K562; Homo sapiens, K562, 48 h",100000 nM
same,TGI,"K562; Homo sapiens, K562, 48 h",545 nM
same,GI50,U-251 [11]; 48 h,170 nM
same,TGI,U-251 [11]; 48 h,330 nM
same,CC50,U-251 [11]; 48 h,610 nM
same,GI50,"U-251 [11]; Homo sapiens, U-251, 48 h",172 nM
same,TGI,"U-251 [11]; Homo sapiens, U-251, 48 h",325 nM
same,CC50,"U-251 [11]; Homo sapiens, U-251, 48 h",614 nM
same,GI50,RXF 393,510 nM
same,LC50 (concentration killing 50% of cells),RXF 393,4450 nM
same,TGI,RXF 393,1740 nM
same,growth at 0.01 µM,COLO 205 [12],92%
same,growth at 1 µM,U-251 [13],-88%
same,growth at 100 µM,UO-31,-81%
same,growth at 100 µM,MDA-MB-231 [14],-66%
same,growth at 0.01 µM,HOP-62,99%
same,growth at 100 µM,CCRF-CEM,8%
same,GI50,SNB-19 [15],1560 nM
same,LC50 (concentration killing 50% of cells),SNB-19 [15],6340 nM
same,TGI,SNB-19 [15],3140 nM
same,growth at 10 µM,COLO 205 [16],-90.9%
same,growth at 1 µM,786-0 [17],83%
same,growth at 100 µM,RPMI-8226,1%
same,growth at 10 µM,NCI-H226 [18],87.6%
same,growth at 100 µM,SF-268,-77%
same,inhibition of growth at 10 µM,SK-BR-3,93.1%
same,inhibition at 10 µM,[19],14.1%
same,growth at 0.01 µM,786-0 [20],98%
same,growth at 100 µM,NCI-H522 [21],-79%
same,growth at 1 µM,HCT-116 [22],-91%
same,growth at 1 µM,T47D,80%
same,growth at 10 µM,SK-MEL-2,-66.9%
same,growth at 10 µM,786-0 [23],-100%
same,growth at 1 µM,OVCAR-3,44%
same,growth at 0.1 µM,NCI/ADR-RES,95%
same,growth at 1 µM,NCI-H522 [24],100%
